Assay results published in patent US10647682B2, “Salts of 2,6-dimethylpyrimidone derivatives and uses thereof” (SUNSHINE LAKE PHARMA CO., LTD., priority 2016, dated 2020).
Read-outs that look alike come from different tables or passages of the source.

What was measured:
[1] = Pharmacokinetics experiments of the salts, oral capsules in Beagle dogs; conditions: 5 mg/kg
Description: (§1) (3-(4-(dihexylamino)-3-fluorophenyl)-2,6-dimethylpyrimidin-4(3H)-one), crystalline forms of the various salts were filled into capsules, which were administered orally.
(§2) Blood samples were collected at 0.25, 0.5, 1.0, 2.0, 4.0, 6.0, 8.0, 12 and 24 hours after the administration. Standard curve was plotted based on concentrations of the samples in a suitable range, the concentrations of test compounds in plasma samples were determined by using Agilent 6430 LC-MS/MS under MRM mode, and quantitative analysis was performed. Pharmacokinetic parameters were calculated according to drug concentration-time curve using a noncompartmental method by WinNonLin 6.3 software.

[2] = High temperature test (stability); format: physicochemical; conditions: 60° C.; for purity: HPLC
Description: High temperature test: an appropriate amount of sample was put in a weighing bottle in the form of a thin layer of ≤5 mm, under a temperature of 60° C. for 10 days. Samples were took at fifth and tenth day, appearance was observed and purity was detected by HPLC.

[3] = High humidity test (stability); format: physicochemical; conditions: 25° C., RH 90%±5%, HPLC
Description: High humidity test: an appropriate amount of sample was put in a weighing bottle in the form of a thin layer of ≤5 mm, under a temperature of 25° C. and RH 90%±5% for 10 days. Samples were took at fifth and tenth day, appearance was observed and purity was detected by HPLC.

[4] = dog, in vivo, po, 5 mg/kg
Description: as §1, §2

CCCCCCN(CCCCCC)c1ccc(-n2c(C)nc(C)cc2=O)cc1F [Compound (I), 3-(4-(dihexylamino)-3-fluorophenyl)-2,6-dimethylpyrimidin-4(3H)-one]
AUC(0-inf) ([1]; male, Beagle, dog, plasma, po): 2320 ng·h/mL | AUC(0-t) ([1]; male, Beagle, dog, plasma, po): 1730 ng·h/mL | Cmax ([1]; male, Beagle, dog, plasma, po): 244 ng/mL | MRT inf ([1]; male, Beagle, dog, plasma, po): 23.3 h | Tmax ([1]; male, Beagle, dog, plasma, po): 1.17 h | half-life ([1]; male, Beagle, dog, plasma, po): 13.8 h

CCCCCCN(CCCCCC)c1ccc(-n2c(C)nc(C)cc2=O)cc1F.Cl [Example 1, 3-(4-(dihexylamino)-3-fluorophenyl)-2,6-dimethylpyrimidin-4(3H)-one Hydrochloride Crystal-I]
AUCINF ([1]; male Beagle dogs, oral capsule): 6310 ng·h/mL | AUClast ([1]; male Beagle dogs, oral capsule): 4470 ng·h/mL | Cmax ([1]; male Beagle dogs, oral capsule): 364 ng/mL | MRTINF ([1]; male Beagle dogs, oral capsule): 41.9 h | T1/2 ([1]; male Beagle dogs, oral capsule): 34.5 h | Tmax ([1]; male Beagle dogs, oral capsule): 2.33 h | purity ([2]; 0 d): 99.81% | purity ([2]; 5 d): 99.80% | purity ([2]; 10 d): 99.79% | purity ([3]; 0 d): 99.81% | purity ([3]; 5 d): 99.79% | purity ([3]; 10 d): 99.80%

CCCCCCN(CCCCCC)c1ccc(-n2c(C)nc(C)cc2=O)cc1F.Cl [Example 2, 3-(4-(dihexylamino)-3-fluorophenyl)-2,6-dimethylpyrimidin-4(3H)-one Hydrochloride Crystal-II]
AUCINF [4]: 2820 ng·h/mL | AUClast [4]: 2940 ng·h/mL | Cmax [4]: 485 ng/mL | MRTINF [4]: 9.43 h | T1/2 [4]: 9.54 h | Tmax [4]: 8.83 h | exposure compared to free compound (I) [4]: relative higher exposure | purity ([2]; 0 d): 99.85% | purity ([2]; 5 d): 99.86% | purity ([2]; 10 d): 99.83% | purity ([3]; 0 d): 99.85% | purity ([3]; 5 d): 99.86% | purity ([3]; 10 d): 99.82%

CCCCCCN(CCCCCC)c1ccc(-n2c(C)nc(C)cc2=O)cc1F.Cc1ccc(S(=O)(=O)O)cc1 [Example 6, 3-(4-(dihexylamino)-3-fluorophenyl)-2,6-dimethylpyrimidin-4(3H)-one Tosilate Crystal-I]
AUCINF ([1]; male Beagle dogs, oral capsule): 3010 ng·h/mL | AUClast ([1]; male Beagle dogs, oral capsule): 2720 ng·h/mL | Cmax ([1]; male Beagle dogs, oral capsule): 329 ng/mL | MRTINF ([1]; male Beagle dogs, oral capsule): 17.5 h | T1/2 ([1]; male Beagle dogs, oral capsule): 17.5 h | Tmax ([1]; male Beagle dogs, oral capsule): 2 h | exposure compared to free compound (I) ([1]; male Beagle dogs, oral capsule, conclusion from table 1): relative higher exposure | purity ([2]; 0 d): 99.83% | purity ([2]; 5 d): 99.81% | purity ([2]; 10 d): 99.81% | purity ([3]; 0 d): 99.83% | purity ([3]; 5 d): 99.80% | purity ([3]; 10 d): 99.83%

CCCCCCN(CCCCCC)c1ccc(-n2c(C)nc(C)cc2=O)cc1F.O=C(O)/C=C\C(=O)O [Example 8, 3-(4-(dihexylamino)-3-fluorophenyl)-2,6-dimethylpyrimidin-4(3H)-one Maleate Crystal-I]
AUCINF [4]: 38337.53 ng·h/mL | AUClast [4]: 5859.22 ng·h/mL | Cmax [4]: 588 ng/mL | MRTINF [4]: 155.21 h | T1/2 [4]: 110.28 h | Tmax [4]: 2 h | exposure compared to free compound (I) [4]: relative higher exposure | appearance ([2]; 0 d): white solid | purity ([2]; 0 d): 99.53% | purity ([2]; 5 d): 99.49% | purity ([2]; 10 d): 99.05% | purity ([3]; 0 d): 99.53% | purity ([3]; 5 d): 99.51% | purity ([3]; 10 d): 99.49%
